Data from US10517863B2, “Trilobine and its natural analogs for use as a drug” (PIERRE FABRE MEDICAMENT, priority 2015, dated 2019).

Experiments:
[1] = test system: luciferase reporter under the control of a methylated CMV promoter in leukemia KG-1 cells; assay: CMV-luc reexpression (luciferase reporter) in KG-1 cells; format: cell-based, human; conditions: 24 hour incubation, fold induction vs DMSO, mean ± standard error
Procedure: Aiming at identifying new DNMT inhibitors, plant extract samples were tested for their ability to reactivate gene expression upon use of an integrated luciferase reporter system under the control of a methylated CMV promoter in leukemia KG-1 cells which inhibits its expression (CMV-luc assay reported in following Table). […] The extract was fractionated by preparative HPLC. Identification of the active components was accomplished by HRMS and NMR spectroscopy. The pure compounds isolated from the extract through bio-guided fractionation are trilobine and bisbenzylisoquinoline analogue products. The active compounds were then further evaluated for their ability to inhibit DNMTs in vitro and DNA methylation in cancer cells.
KG-1 cells were stably transfected with the firefly luciferase reporter gene (luc+ from pGL3; Promega) under the control of the cytomegalovirus (CMV) promoter (from pEGFP-N1; Clontech Laboratories Inc.) partially methylated (50%). 20,000 cells per well were seeded in a 96-well plate. After 24 hour incubation in the presence of the test compound or solvant (DMSO), the induction of the promoter was measured by quantification of the luciferase signal with the Brite-lite assay system (PerkinElmer) according to the manufacturer's protocol. The luminescence was measured on an EnVision multilabel plate reader (PerkinElmer), and the data are expressed as the fold induction as compared with the DMSO control. The mean of three experiments and the standard error is reported.

[2] = biological target: T1, human C-terminal DNMT3A (a.a. 623-908) (Homo sapiens, UniProt Q9Y6K1); assay: hDNMT3A restriction-based fluorescence assay; format: biochemical; conditions: for inhibition at 10 µM / inhibition at 32 µM: read-out: hDNMT 3A inhibition, Inhibition (%); for EC50: brackets: 95% confidence interval, read-out: hDNMT 3A inhibition EC50
T1 construct: The human C-terminal DNMT3A (a.a. 623-908); made in house
T1 sequence (Q9Y6K1 627-912): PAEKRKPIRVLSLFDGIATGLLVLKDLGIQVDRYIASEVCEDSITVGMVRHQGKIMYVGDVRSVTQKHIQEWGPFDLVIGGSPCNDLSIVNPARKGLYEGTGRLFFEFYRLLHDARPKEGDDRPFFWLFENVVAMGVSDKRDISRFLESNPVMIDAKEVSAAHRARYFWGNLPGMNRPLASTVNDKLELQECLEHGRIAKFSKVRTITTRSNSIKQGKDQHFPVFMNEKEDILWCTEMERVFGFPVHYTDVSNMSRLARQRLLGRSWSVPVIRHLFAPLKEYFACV
Excerpt: hDNMT3A enzyme inhibition was adapted from the restriction-based fluorescence assay protocol as described in the literature (Ceccaldi et al. ChemBioChem 2011, 12, 1337-1345). Briefly, a 5′-labelled biotin oligonucleotide is hybridized to its complementary strand labelled with 6-carboxyfluorescein at the 3′-end into a 384 well microplate (black Optiplates; Perkin Elmer) pre-coated with avidin. The duplex contains a unique CpG site overlapping with a restriction site of a methylation sensitive restriction enzyme. The human C-terminal DNMT3A (a.a. 623-908), produced as described in the literature (Gros et al. Nucl. Acids Res. 2013, 41(19):e185), was added in each well (200 ng/well) and mixed with the chemical compounds at desired concentrations and freshly prepared AdoMet (20 μM final concentration) to start the reaction in a total volume of 50 μL. After 1 hour incubation at 37° C. each well were washed three times with PBS, Tween-20 0.05%, NaCl (500 mM) and three more times with PBST. Specific fluorescent signals were detected with the methylation-sensitive restriction enzyme HpyCH4IV (NEB) as described and measured on a Perkin Elmer Envision detector. The percentage of inhibition is reported. The formula used to calculate the percentage of inhibition is [(X−Y)/X]×100, where X is the signal determined in the absence of the inhibitor and Y is the signal obtained in the presence of the inhibitor. The concentration at which 50% of efficacy of inhibition is observed (EC50) was determined by analysis of a concentration range of the tested compound in triplicates. The non-linear regression fittings with sigmoidal dose-response (variable slope) were performed with GraphPad Prism 4.03 (GraphPad Software).

[3] = biological target: T2, His-DNMT1 (182 kDa, human) (Homo sapiens, UniProt P26358); assay: hDNMT1 assay ([methyl-3H] SAM Flashplate); format: biochemical; conditions: read-out: hDNMT1 percentage of inhibition
T2 construct: His; made in house
T2 sequence (P26358 whole entry): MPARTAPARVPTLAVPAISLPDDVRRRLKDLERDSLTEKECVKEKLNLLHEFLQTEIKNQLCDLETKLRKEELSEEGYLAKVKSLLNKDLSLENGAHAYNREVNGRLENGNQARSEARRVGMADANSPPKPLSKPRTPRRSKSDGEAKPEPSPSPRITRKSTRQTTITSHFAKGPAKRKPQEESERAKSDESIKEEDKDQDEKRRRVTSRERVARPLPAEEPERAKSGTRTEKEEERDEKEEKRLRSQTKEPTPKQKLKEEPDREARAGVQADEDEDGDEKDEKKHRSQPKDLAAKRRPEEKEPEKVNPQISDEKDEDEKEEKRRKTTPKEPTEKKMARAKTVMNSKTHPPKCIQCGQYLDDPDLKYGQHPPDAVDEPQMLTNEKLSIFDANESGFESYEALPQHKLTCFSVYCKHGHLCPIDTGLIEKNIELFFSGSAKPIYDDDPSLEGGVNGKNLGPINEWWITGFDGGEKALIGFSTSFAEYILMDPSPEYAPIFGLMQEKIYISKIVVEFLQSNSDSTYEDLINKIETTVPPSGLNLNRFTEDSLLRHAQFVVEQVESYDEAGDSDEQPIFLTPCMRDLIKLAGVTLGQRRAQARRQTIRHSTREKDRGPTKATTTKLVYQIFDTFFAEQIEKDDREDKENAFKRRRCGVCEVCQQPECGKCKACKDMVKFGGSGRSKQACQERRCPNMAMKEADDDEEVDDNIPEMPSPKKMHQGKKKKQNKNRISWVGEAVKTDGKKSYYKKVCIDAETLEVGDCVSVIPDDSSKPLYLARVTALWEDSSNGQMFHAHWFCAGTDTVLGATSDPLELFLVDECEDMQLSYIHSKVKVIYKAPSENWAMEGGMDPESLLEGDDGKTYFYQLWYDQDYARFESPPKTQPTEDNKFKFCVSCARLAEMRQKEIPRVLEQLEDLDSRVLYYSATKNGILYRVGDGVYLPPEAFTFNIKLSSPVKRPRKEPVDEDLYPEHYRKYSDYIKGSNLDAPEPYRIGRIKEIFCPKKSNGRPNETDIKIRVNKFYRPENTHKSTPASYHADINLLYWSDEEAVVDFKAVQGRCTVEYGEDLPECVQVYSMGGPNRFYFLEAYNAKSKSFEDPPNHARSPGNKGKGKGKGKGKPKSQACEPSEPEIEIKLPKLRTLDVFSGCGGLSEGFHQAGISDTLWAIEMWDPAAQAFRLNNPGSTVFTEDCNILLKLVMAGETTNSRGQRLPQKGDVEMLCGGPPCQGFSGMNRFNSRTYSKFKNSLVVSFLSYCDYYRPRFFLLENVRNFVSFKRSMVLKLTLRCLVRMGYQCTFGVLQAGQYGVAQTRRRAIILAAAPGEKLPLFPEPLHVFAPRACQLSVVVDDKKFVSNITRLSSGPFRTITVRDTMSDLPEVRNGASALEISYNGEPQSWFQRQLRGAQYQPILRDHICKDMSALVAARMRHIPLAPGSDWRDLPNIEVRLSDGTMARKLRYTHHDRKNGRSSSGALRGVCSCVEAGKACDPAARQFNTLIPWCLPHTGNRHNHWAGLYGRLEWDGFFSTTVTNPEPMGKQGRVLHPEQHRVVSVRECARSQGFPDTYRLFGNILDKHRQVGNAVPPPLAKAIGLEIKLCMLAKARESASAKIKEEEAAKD
Procedure: His-DNMT1 (182 kDa, human) was cloned, expressed and purified as described in the literature (Halby et al. ChemBioChem 2012, 13, 157-165). The reaction was performed in a […] total reaction volume in low volume NBS™ 384-well microplates (Corning), containing the tested compound (up to 1% DMSO), 1 μM of a SAM/[methyl-^3H] SAM (3 TBq/mmol, PerkinElmer) mix in a ratio of 3-to-1 (isotopic dilution 1*:3), 0.3 μM of biotinylated hemimethylated DNA duplex (5′-GATmCGCmCGATGmCGmCGAATmCGmCGATmCGATGmCGAT-3′ and BIOT-5′-[…]-3′), and 90 nM of DNMT1 in methylation buffer (20 mM HEPES pH 7.2, 1 mM EDTA, 50 mM KCl, 25 μg/mL BSA). The reaction was incubated at 37° C. for 2 hours. 8 μL, are then transferred into a streptavidin 96-well scintillant coated Flashplate™ (PerkinElmer) containing 190 μL of 20 μM SAH in 50 mM Tris-HCl pH 7.4. The Flashplate™ was agitated at room temperature for 1 hour and read in 200 μL of 50 mM Tris-HCl pH 7.4 on TopCount NXT (PerkinElmer). The percentage of inhibition is reported. The formula used to calculate the percentage of inhibition is [(X−Y)/X]×100, where X is the signal determined in the absence of the inhibitor and Y is the signal obtained in the presence of the inhibitor.

SMILES	inhibition at 10 µM [2]	inhibition at 32 µM [2]	EC50 [2]	Reactivation fold of luciferase gene reporter in KG-1 CMV-Luc ([1]; 0.1 μM)	Reactivation fold of luciferase gene reporter in KG-1 CMV-Luc ([1]; 0.32 μM)	Reactivation fold of luciferase gene reporter in KG-1 CMV-Luc ([1]; 0.5 μM)	Reactivation fold of luciferase gene reporter in KG-1 CMV-Luc ([1]; 1 μM)	Reactivation fold of luciferase gene reporter in KG-1 CMV-Luc ([1]; 3.2 μM)	Reactivation fold of luciferase gene reporter in KG-1 CMV-Luc ([1]; 5 μM)	Reactivation fold of luciferase gene reporter in KG-1 CMV-Luc ([1]; 10 μM)	inhibition at 32 µM [3]
COc1ccc2cc1Oc1ccc(cc1)C[C@H]1c3c(cc(OC)c4c3Oc3cc5c(cc3O4)CCN(C)[C@H]5C2)CCN1C [Compound 2, Isotrilobine]	56%	76%	–	1.0 ± 0.1 fold	2.4 ± 1.4 fold	2.8 ± 0.8 fold	3.6 ± 2.9 fold	2.4 ± 0.7 fold	3.1 ± 0.6 fold	6.1 ± 0.5 fold	–
COc1ccc2cc1Oc1ccc(cc1)C[C@H]1c3c(cc(OC)c4c3Oc3cc5c(cc3O4)CCN[C@H]5C2)CCN1C [Compound 3, O-Methylcocsoline]	95%	100%	–	–	–	–	–	–	–	–	–
COc1cc2c3c4c1Oc1cc5c(cc1O4)[C@H](Cc1ccc(O)c(c1)Oc1ccc(cc1)C[C@@H]3NCC2)N(C)CC5 [Compound 5, 2′-Norcocsuline]	73%	88%	–	1.0 ± 0.2 fold	2.3 ± 0.7 fold	2.1 ± 0.6 fold	2.6 ± 1.6 fold	3.9 ± 0.4 fold	5.1 ± 0.1 fold	cyt. tox.	–
COc1ccc2cc1Oc1ccc(cc1)C[C@@H]1NCCc3cc(OC)c4c(c31)Oc1cc3c(cc1O4)CCN[C@H]3C2 [Compound 7, Nortrilobine]	83%	94%	–	1.1 ± 0.2 fold	1.7 ± 0.5 fold	1.9 ± 1.3 fold	2.6 ± 1.8 fold	5.4 ± 2.6 fold	12.3 ± 1.2 fold	cyt. tox..	99%

Continued, in another order:

inhibition at 10 µM [2]	inhibition at 32 µM [2]	EC50 [2]	SMILES	Reactivation fold of luciferase gene reporter in KG-1 CMV-Luc ([1]; 0.1 μM)	Reactivation fold of luciferase gene reporter in KG-1 CMV-Luc ([1]; 0.32 μM)	Reactivation fold of luciferase gene reporter in KG-1 CMV-Luc ([1]; 0.5 μM)	Reactivation fold of luciferase gene reporter in KG-1 CMV-Luc ([1]; 1 μM)	Reactivation fold of luciferase gene reporter in KG-1 CMV-Luc ([1]; 3.2 μM)	Reactivation fold of luciferase gene reporter in KG-1 CMV-Luc ([1]; 5 μM)	Reactivation fold of luciferase gene reporter in KG-1 CMV-Luc ([1]; 10 μM)	inhibition at 32 µM [3]
23%	66%	> 10 µM	COc1cc2c3c4c1Oc1cc5c(cc1O4)[C@H](Cc1ccc(O)c(c1)Oc1ccc(cc1)C[C@@H]3N(C)CC2)N(C)CC5 [Compound 4, Cocsuline]	–	–	–	–	–	–	–	–
37%	91%	> 10 µM	COc1cc2c3c4c1Oc1cc5c(cc1O4)[C@H](Cc1ccc(O)c(c1)Oc1ccc(cc1)C[C@@H]3N(C)CC2)NCC5 [Compound 6, Cocsoline]	–	–	–	–	–	–	–	–
41%	68%	> 10 µM	COc1cc2c3c4c1Oc1cc5c(cc1O4)C(=NCC5)Cc1ccc(O)c(c1)Oc1ccc(cc1)C[C@@H]3N(C)CC2 [Compound 8, 1,2-Dehydroapateline]	–	–	–	–	–	–	–	–
37%	63%	> 10 µM	COc1ccc2cc1Oc1ccc(cc1)C[C@H]1c3c(cc(OC)c4c3Oc3cc5c(cc3O4)CCN=C5C2)CCN1C [Compound 9, 1,2-Dehydrotelobine]	–	–	–	–	–	–	–	–
